No end group written: not given here.

The test system of one data set is TcdB autoprotease domain. Briefly: In vitro autoprocessing of TcdB (InsP6-induced autoprotease activity). It counts as biochemical, C. difficile VPI 10463. Conditions: NEM 1 mM; TcdB 2 µg, InsP6 1 mM; 1 h, 37 °C, pH 7.4 (n = 2). The procedure:
(§1) The flow rate was 25 µL/min. […] A representative gel is shown (n = 2). […] GAPDH served as the loading control. A representative Western blot is shown.
The effects of α-def-6 on TcdB autoprocessing by its intrinsic cysteine protease activity were analyzed. […] Inositol hexakisphosphate (1 mM, Santa Cruz Biotechnology, Dallas, TX, USA) was added to the samples to induce autoprocessing. N-Ethylmaleimide (1 mM, Sigma Aldrich by Merck KGaA, Darmstadt, Germany) served as positive control for the inhibition of TcdB-autoprocessing. The reactions were stopped by addition of a Laemmli buffer and heat denaturation (95 °C). For the analysis, the samples were electrophoresed on 8% SDS polyacrylamide gels, and proteins were visualized by Coomassie staining.

For another data set, the system named is glucosyltransferase. Conditions: control in UDP-Glo assay at 10 mM; ref [29]; cited from earlier work. As for the experimental part:
Based on the finding that TcdB directly binds to α-def-6 in vitro, a set of experiments was performed to investigate the consequences of this interaction for TcdB. Although α-def-6 and TcdB interact directly, the release of the glucosyltransferase domain by the autoprotease domain in the presence of inositol hexakisphosphate (InsP6) was not affected (Figure 1B).

The next data set deals with zebrafish embryos. As to conditions: in vivo.
The next data set concerns TcdA, TcdB and CDT. As to conditions: ref [25],[26]; cited from earlier work. The source says:
(§2) The benchmark for treating CDIs is still the use of some specific antibiotics such as vancomycin, metronidazole or fidaxomicin [20]. More and more attention is also being paid to the direct inactivation of the secreted toxins, for example by using anti-toxin-antibodies such as bezlotoxumab or actoxumab. Following the approach of directly inactivating the secreted toxins and based on previous findings of our group and of others, we investigated the effects of human endogenous antimicrobial peptides on the C. difficile toxins TcdA and TcdB. Here, of particular interest is the group ...

The subject of the next data set is bacterial protein toxins. As to conditions: ref [51]; cited from earlier work. The source says:
There is increasing evidence that α-def-6 represents an outlier among the α-defensins, which is also noticeable in the context of bacterial toxins. Anti-toxin activities have already been described for several α-defensins.

Data set [1] concerns TcdB. Conditions: SPR, β-def-1 6 µM (control); pH 7.0, 25 °C, 25 µL/min, 4 min injection.
Description: (A) 2400 RUs of biotinylated TcdB were immobilized via streptavidin-biotin binding onto a streptavidin sensor chip, and α-def-6 (concentrations as indicated) was applied to the chip for 4 min followed by a dissociation phase with a flow of running buffer. A solution of 6 µM of α-def-6 was injected twice to assess reproducibility, and β-def-1 (6 µM) served as a control. The flow rate was 25 µL/min.
TcdB was biotinylated via EZ-Link^TM Sulfo-NHS-Biotin (Thermo Fisher Scientific, Waltham, MA, USA) according to the manufacturer’s protocol. Briefly, TcdB was incubated with Sulfo-NHS-Biotin for 30 min at room temperature (RT). To remove the excess non-reacted biotin, TcdB was rebuffered with a Zeba^TM Spin Desalting Column (Thermo Fisher Scientific, Waltham, MA, USA). The successful biotinylation was verified via Western blotting and detection with peroxidase-conjugated streptavidin (1:2500, F. Hoffmann-La Roche AG, Basel, Switzerland).
The binding of α-def-6 to biotinylated TcdB was analyzed via surface plasmon resonance spectroscopy (SPR) with a Reichert SPR7500DC SPR spectrometer (Reichert Technologies, Buffalo, NY, USA). All analytes were dialyzed in running buffer (10 mM HEPES, 150 mM NaCl, 50 µM EDTA, 0.005% (v/v) Tween®20, pH 7.0) beforehand. Experiments were performed with a flow rate of 25 µL/min at 25 °C. […]
Data set [2] has as its system bacterial toxins including TcdB. Conditions: cited from earlier work.
In a further data set the test system is TcdB glucosyltransferase. Briefly: UDP-Glo glucosyltransferase assay. It counts as biochemical, C. difficile VPI 10463. Conditions: TcdB 200 pM, recombinant Rac1 5 µM, UDP-glucose 100 µM, 1 h, 37 °C, pH 7.5, luminescence (n ≥ 3). As for the experimental part:
as §1
UDP-Glo™ Glucosyltransferase assay with UDP-Glucose (Promega Corporation, Madison, WI, USA) was performed according to the manufacturer’s protocol. Briefly, TcdB (200 pM) was incubated in glucosylation buffer (50 mM HEPES, 100 mM KCl, 2 mM MgCl2, 1 mM MnCl2, 100 mg/L BSA, pH 7.5) with various concentrations of the respective inhibitors in a final volume of 40 µL. 5 µM recombinant Rac1 was included in the samples as a substrate. […] Castanospermine (10 mM, Santa Cruz Biotechnology, Dallas, TX, USA) served as control for inhibition of glucosyltransferase activity of TcdB. To stop the reaction, three times 10 µL of each sample were transferred to a white half area 96 well microplate (Greiner Bio-One International GmbH, Kremsmünster, Austria) combined with 10 µL of UDP Detection Reagent and mixed at 1000 rpm for 30 s on a plate shaker (Titramax 1000, Heidolph Instruments GmbH & Co. KG, Schwabach, Germany). Luminescence was recorded after 15–60 min via a Tecan infinite M1000 Pro plate reader (Tecan, Männdorf, Switzerland) with an integration time of 750 ms.

In the next data set the test system is bacteria. Conditions: ref [46]; cited from earlier work.
Text: as §2, with “TcdB. […] The administration” for “TcdB. Here,”, “of α-def-6 protected human cells from TcdB, but also from” for “of particular interest is”, “the closely related TcdA and the clinically more relevant combination of both TcdA and TcdB. Exemplarily, the protective effect could be confirmed for TcdB in vivo using the zebrafish embryo” for “the group”

Data set [3] has as its system TcdB. As to conditions: ref [24]; cited from earlier work.

As for `CCN1C(=O)C=CC1=O` [NEM, N-ethylmaleimide, reference compound], the “autocatalytic processing of TcdB (effect of control inhibitor)” value in the data set with TcdB autoprotease domain is “prevented the autocatalytic processing of TcdB”.
On to `O[C@H]1[C@H](O)[C@@H](O)CN2CC[C@H](O)[C@H]12` [castanospermine], for which the inhibition of glucosyltransferase result in the data set on glucosyltransferase is on record as “established glucosyltransferase inhibitor”.
As to Abamectin [reference compound], the neurotoxicity entry with zebrafish embryos was “causes neurotoxicity”.
“α-defensin-1: human neutrophil peptide 1, α-defensin cited from earlier work [reference compound]”: the “inactivation of TcdA, TcdB and CDT” value in the data set with TcdA, TcdB and CDT is “inactivate TcdA and CDT, in addition to TcdB”. The “destabilization of toxin secondary and tertiary structures (local unfolding)” value with bacterial protein toxins was “leads to the destabilization of secondary and tertiary structures”.
For “β-def-1: β-defensin used as control to exclude non-specific interactions; purchased from Pepta Nova (DHYNCVSSGGQCLYSACPIFTKIQGTCYRGKAKCCK; ends and bridges not checked; cysteine pairing not given here) [reference compound]”, in the data set on TcdB [1], the “interaction with immobilized TcdB, compared to α-def-6” value is given as “much weaker in combination with a faster washout”. Besides, the “interaction with bacterial toxins including TcdB” value in data set [2] is on record as “do not interact with bacterial toxins including TcdB”.

B1: α-def-5: structurally similar defensin; purchased from Pepta Nova (peptide, UniProt Q01523 20-94, looked up)
Defensin alpha 5: ESLQERADEATTQKQSGEDNQDLAISFAGNGLSALRTSGSQARATCYCRTGRCATRESLSGVCEISGRLYRLCCR
modifications: Defensin-5
notes: structurally similar defensin; purchased from Pepta Nova
On to B1, for which the “inhibition of glucosyltransferase activity of TcdB” value with TcdB glucosyltransferase is on record as “clear concentration-dependent reduction of glucosyltransferase activity”. The “inactivation of TcdA, TcdB and CDT” value in the data set with TcdA, TcdB and CDT is “inactivate TcdA and CDT, in addition to TcdB”. Moreover, the “biocidal / antimicrobial activity” value in the data set with bacteria was “significant biocidal activity against invading pathogens”. The “inhibition of glucosyltransferase and glucosylhydrolase activity of TcdB” value in the data set with TcdB [3] is “directly inhibits the glucosyltransferase and glucosylhydrolase activity of TcdB”.
